The source of these data is US9163012B2, “Carbamate and urea inhibitors of 11β-hydroxysteroid dehydrogenase 1” (Vitae Pharmaceuticals, Inc., priority 2009, dated 2015).

For this assay, the target named is 11β-HSD1 (Homo sapiens (Human), UniProt P28845). Kind of assay: Biological Test Example 1: inhibition of a microsomal preparation of 11β-HSD1 (SPA). Format: biochemical. Particulars: for Average % inhibition at 100 nM / inhibition at 0.1 µM: 100 nM compound; for inhibition at 0.1 µM: read-out: Average % inhibition at 100 nM, Biological Test Example 1. The method, then:
All reactions were carried out at rt in 96 well clear flexible PET Microbeta plates (PerkinElmer). […] After a 10 minute pre-incubation, 50 μL of enzyme solution containing microsomes isolated from CHO cells overexpressing human 11-HSD1 (10-20 μg/ml of total protein) was added, and the plates were incubated for 90 minutes at rt. The reaction was stopped by adding 50 μl of the SPA beads suspension containing 10 μM […], 5 mg/ml protein A coated YSi SPA beads (GE Healthcare) and 3.3 μg/ml of anti-cortisol antibody (East Coast Biologics) in Superblock buffer (Bio-Rad). The plates were shaken for 120 minutes at rt, and the SPA signal corresponding to [^3H]cortisol was measured on a Microbeta plate reader.

The mark [1] stands for this setting: Biological Test Example 1, microsomes from CHO cells overexpressing human 11β-HSD1, read-out: IC50 Range.
The mark [2] stands for this setting: Biological Test Example 1, read-out: IC50.

As a reminder, the IC50 is the point on the concentration scale where inhibition reaches its midpoint. Usually inhibition stands for the percentage by which the read-out fell short of the control.

Where “and” joins values, the source holds several entries; their conditions need not be identical. Equal values may be shown once. Read-outs that look alike come from different tables or passages of the source. Bounds are passed on as bounds.

11β-HSD1, sequence (P28845 whole entry): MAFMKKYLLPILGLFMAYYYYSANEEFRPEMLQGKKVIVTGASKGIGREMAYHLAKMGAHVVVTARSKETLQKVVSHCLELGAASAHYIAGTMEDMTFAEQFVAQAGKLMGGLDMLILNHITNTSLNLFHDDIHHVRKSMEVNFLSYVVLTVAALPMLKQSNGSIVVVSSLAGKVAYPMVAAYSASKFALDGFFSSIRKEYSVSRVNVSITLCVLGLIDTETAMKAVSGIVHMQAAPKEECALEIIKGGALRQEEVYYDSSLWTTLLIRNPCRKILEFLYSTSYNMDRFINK

In the case of `COc1cnc(C2CCN(C(=O)OC3C4CC5CC3CC(C(N)=O)(C5)C4)C2)nc1` (single isomer, unassigned) [EXAMPLE 44 Isomer 1, 1-carbamoyl-4-adamantyl 3-(5-methoxypyrimidin-2-yl)pyrrolidine-1-carboxylate], the “Average % inhibition at 100 nM” value (Biological Test Example 1) stood at 95.2%.

As for `Cn1c(=O)n([C@@H]2CCN(C(=O)O[C@H]3C4CC5CC3C[C@](C(N)=O)(C5)C4)C2)c2ncc(Cl)cc21` [EXAMPLE 29, (R) (trans-1-carbamoyl-4-adamantyl) 3-(6-chloro-1-methyl-2-oxo-1H-imidazo[4,5-b]pyridin-3(2H)-yl)pyrrolidine-1-carboxylate], the inhibition at 0.1 µM came to 99.2%. For the same compound, the IC50 under setting [1] is below 0.1 µM. In addition, the IC50 under setting [2] was determined as 0.001 µM.

On to `O=C(OC1C2CC3CC1CC(O)(C3)C2)N1CCC(c2ncc(Cl)cn2)C1` (single isomer, unassigned) [EXAMPLE 24 Isomer 2, cis-1-hydroxy-4-adamantyl 3-(5-chloropyrimidin-2-yl)pyrrolidine-1-carboxylate], for which the “Average % inhibition at 100 nM” value (Biological Test Example 1) worked out at 34.7%.

Regarding `Cc1ncc(C2CCN(C(=O)OC3C4CC5CC3CC(C(N)=O)(C5)C4)C2)cn1` (single isomer, unassigned) [EXAMPLE 36 Isomer 1, 1-carbamoyl-4-adamantyl 3-(2-methylpyrimidin-5-yl)pyrrolidine-1-carboxylate], the “Average % inhibition at 100 nM” value (Biological Test Example 1) worked out at 59.1%. Besides, the IC50 under setting [1] is below 0.1 µM and the IC50 under setting [2] was 0.0837 µM.

Turning to `Cc1nc2cccc(Cl)c2n1[C@H]1CCN(C(=O)OC2C3CC4CC2CC(C(N)=O)(C4)C3)C1` (stereo partly drawn) [EXAMPLE 76, (S)-1-carbamoyl-4-adamantyl 3-(7-chloro-2-methyl-1H-benzo[d]imidazol-1-yl)pyrrolidine-1-carboxylate], the inhibition at 0.1 µM was 93.6%. The IC50 under setting [1] was below 0.1 µM. For the same compound, under setting [2], the IC50 was found to be 0.00111 µM.

For `O=C(OC1C2CC3CC1CC(C(=O)O)(C3)C2)N1CCC(c2ncc(Cl)cn2)C1` (single isomer, unassigned) [EXAMPLE 46 Isomer 1, trans-4-((3-(5-chloropyrimidin-2-yl)pyrrolidine-1-carbonyl)oxy)adamantane-1-carboxylic acid], the “Average % inhibition at 100 nM” value (Biological Test Example 1) worked out at 22.4%. The IC50 under setting [1] was above 0.1 µM and the IC50 under setting [2] was above 0.1 µM.

In the case of `NC(=O)[C@]12CC3CC(C1)[C@@H](OC(=O)N1CC[C@@H](Oc4ncc(F)cc4F)C1)C(C3)C2` (relative stereo) [EXAMPLE 1, (R)-(trans-(1-carbamoyl-4-adamantyl)) 3-(3,5-difluoropyridin-2-yloxy)pyrrolidine-1-carboxylate], the “Average % inhibition at 100 nM” value (Biological Test Example 1) came to 95.53%. Moreover, the 50% inhibitory concentration (IC50) by setting is: under setting [1], below 0.1 µM; under setting [2], 0.00154 µM.

Consider `NC(=O)[C@]12CC3CC(C1)[C@@H](OC(=O)N1CC[C@H](Oc4ncc(F)cc4F)C1)C(C3)C2` [EXAMPLE 2, (S)-(trans-(1-carbamoyl-4-adamantyl)) 3-(3,5-difluoropyridin-2-yloxy)pyrrolidine-1-carboxylate], for which the inhibition at 0.1 µM was found to be 96.2%. Besides, the IC50 under setting [1] was below 0.1 µM. For the same compound, the half-maximal inhibitory concentration (IC50) under setting [2] worked out at 0.00068 µM.

With `NC(=O)[C@]12CC3CC(C1)[C@@H](OC(=O)N1CC[C@H](n4c(=O)n(CCO)c5cc(F)ccc54)C1)C(C3)C2` [EXAMPLE 73, (S)-trans-1-carbamoyl-4-adamantyl 3-(5-fluoro-3-(2-hydroxyethyl)-2-oxo-2,3-dihydro-1H-benzo[d]imidazol-1-yl)pyrrolidine-1-carboxylate], the inhibition at 0.1 µM stood at 93%. In addition, under setting [1], the IC50 is below 0.1 µM. Also, the half-maximal inhibitory concentration (IC50) under setting [2] was found to be 0.00452 µM.

Take `Cn1ccc(-c2cnc(C3CCN(C(=O)OC4C5CC6CC4CC(C(N)=O)(C6)C5)C3)nc2)cc1=O` (single isomer, unassigned) [EXAMPLE 57 Isomer 2, 1-carbamoyl-4-adamantyl 3-(5-(1-methyl-2-oxo-1,2-dihydropyridin-4-yl)pyrimidin-2-yl)pyrrolidine-1-carboxylate]: the inhibition at 0.1 µM was found to be 18.1%. Under setting [1], the IC50 was above 0.1 µM. Moreover, the IC50 under setting [2] was above 0.1 µM.

As to `O=C(OC1C2CC3CC1CC(O)(C3)C2)N1CCC(c2ccncc2)C1` (stereo not shown) [EXAMPLE 21, 1-hydroxy-4-adamantyl 3-(pyridin-4-yl)pyrrolidine-1-carboxylate], the inhibition at 0.1 µM is 81.4%. Also, the IC50 under setting [1] is below 0.1 µM. For the same compound, the IC50 under setting [2] was found to be 0.0208 µM.

For the compound `O=C(OC1C2CC3CC(C2)CC1C3)N1CCC[C@@H]1c1nc(-c2cc[n+]([O-])cc2)cs1` (stereo partly drawn) [EXAMPLE 52, (R)-4-(2-(1-((2-adamantyloxy)carbonyl)pyrrolidin-2-yl)thiazol-4-yl)pyridine 1-oxide], the inhibition at 0.1 µM worked out at 95.1%. The IC50 under setting [1] was below 0.1 µM. The half-inhibitory concentration (IC50) under setting [2] was 0.00119 µM.

On to `Cc1cc(C)nc(C2CCN(C(=O)OC3C4CC5CC3CC(C(N)=O)(C5)C4)C2)n1` (single isomer, unassigned) [EXAMPLE 43 Isomer 1, trans-1-carbamoyl-4-adamantyl 3-(4,6-dimethylpyrimidin-2-yl)pyrrolidine-1-carboxylate], for which, where the note is “Biological Test Example 1”, the “Average % inhibition at 100 nM” value is listed as 86.5%. The half-maximal inhibitory concentration (IC50) by setting is: under setting [1], below 0.1 µM; under setting [2], 0.00572 µM.

As for `Cn1c(=O)n([C@@H]2CCN(C(=O)O[C@H]3C4CC5CC3C[C@](C(N)=O)(C5)C4)C2)c2ccccc21` [EXAMPLE 62, (R)-trans-1-carbamoyl-4-adamantyl 3-(3-methyl-2-oxo-2,3-dihydro-1H-benzo[d]imidazol-1-yl)pyrrolidine-1-carboxylate], the inhibition at 0.1 µM turned out to be 92.7%. Also, the half-inhibitory concentration (IC50) under setting [1] is below 0.1 µM. The half-inhibitory concentration (IC50) under setting [2] amounted to 0.00307 µM.

Regarding `Cc1ccnc(C2CCN(C(=O)OC3C4CC5CC3CC(C(N)=O)(C5)C4)C2)n1` (single isomer, unassigned) [EXAMPLE 38 Isomer 2, 1-carbamoyl-4-adamantyl 3-(4-methylpyrimidin-2-yl)pyrrolidine-1-carboxylate], the “Average % inhibition at 100 nM” value (Biological Test Example 1) is given as 10.7%. Also, the half-maximal inhibitory concentration (IC50) by setting is: under setting [1], above 0.1 µM; under setting [2], above 0.1 µM.

On to `NC(=O)[C@]12CC3CC(C1)[C@@H](OC(=O)N1CCCC1c1ncc(Cl)cn1)C(C3)C2` (stereo partly shown) [EXAMPLE 45, 1-carbamoyl-4-adamantyl 2-(5-chloropyrimidin-2-yl)pyrrolidine-1-carboxylate], for which the inhibition at 0.1 µM stood at 87.5%. Under setting [1], the IC50 was below 0.1 µM. For the same compound, under setting [2], the IC50 was found to be 0.0135 µM.

Take `Cn1cc(-c2cnc(C3CCN(C(=O)OC4C5CC6CC4CC(C(N)=O)(C6)C5)C3)nc2)ccc1=O` (single isomer, unassigned) [EXAMPLE 58 Isomer 2, 1-carbamoyl-4-adamantyl 3-(5-(1-methyl-6-oxo-1,6-dihydropyridin-3-yl)pyrimidin-2-yl)pyrrolidine-1-carboxylate]: under “Biological Test Example 1”, the “Average % inhibition at 100 nM” value stood at 3.8%. Further, the IC50 is above 0.1 µM under setting [1] and above 0.1 µM under setting [2].

Turning to `Cc1nnc(C2CCCN(C(=O)OC3C4CC5CC3CC(O)(C5)C4)C2)o1` (stereo not shown) [EXAMPLE 25, 1-hydroxy-4-adamantyl 3-(5-methyl-1,3,4-oxadiazol-2-yl)piperidine-1-carboxylate], the inhibition at 0.1 µM came out at 69.9%. In addition, the IC50 under setting [1] was below 0.1 µM. Under setting [2], the IC50 is 0.0395 µM.

As to `NC(=O)C12CC3CC(C1)C(OC(=O)N1CCC(c4nccc(C(F)(F)F)n4)C1)C(C3)C2` (single isomer, unassigned) [EXAMPLE 48 Isomer 1, trans-1-carbamoyl-4-adamantyl 3-(4-(trifluoromethyl)pyrimidin-2-yl)pyrrolidine-1-carboxylate], the “Average % inhibition at 100 nM” value (Biological Test Example 1) worked out at 94.5%.

In the case of `Cc1nc2cccc(Cl)c2n1[C@@H]1CCN(C(=O)OC2C3CC4CC2CC(C(N)=O)(C4)C3)C1` (stereo partly drawn) [EXAMPLE 59, (R)-1-carbamoyl-4-adamantyl 3-(7-chloro-2-methyl-1H-benzo[d]imidazol-1-yl)pyrrolidine-1-carboxylate], the inhibition at 0.1 µM is 96.7%. For the same compound, the concentration for half-maximal inhibition (IC50) under setting [1] was below 0.1 µM. The concentration for half-maximal inhibition (IC50) under setting [2] came to 0.00192 µM.

Turning to `NC(=O)[C@]12CC3CC(C1)[C@@H](OC(=O)N1CC[C@@H](n4c(=O)[nH]c5ccccc54)C1)C(C3)C2` [EXAMPLE 61, (R)-trans-1-carbamoyl-4-adamantyl 3-(2-oxo-2,3-dihydro-1H-benzo[d]imidazol-1-yl)pyrrolidine-1-carboxylate], the inhibition at 0.1 µM is 89.9%. Also, the IC50 under setting [1] was below 0.1 µM. Besides, the half-inhibitory concentration (IC50) under setting [2] worked out at 0.00417 µM.

For the compound `O=C(OC1C2CC3CC(C2)CC1C3)N1CCC(CO)(c2ccccc2)CC1` (stereo not shown) [EXAMPLE 30, 2-adamantyl 4-(hydroxymethyl)-4-phenylpiperidine-1-carboxylate], the inhibition at 0.1 µM amounted to 87.4%. In addition, at 0.063 µM the inhibition (Biological Test Example 1, Dose = 63 nM) was 80.1%. In addition, under setting [1], the IC50 was below 0.1 µM. For the same compound, under setting [2], the IC50 was 0.0132 µM and 0.00444 µM.

For `Cn1c(=O)n([C@H]2CCN(C(=O)O[C@H]3C4CC5CC3C[C@](C(N)=O)(C5)C4)C2)c2c(Cl)cccc21` [EXAMPLE 71, (S)-trans-1-carbamoyl-4-adamantyl 3-(7-chloro-3-methyl-2-oxo-2,3-dihydro-1H-benzo[d]imidazol-1-yl)pyrrolidine-1-carboxylate], the inhibition at 0.1 µM is 96.6%. Also, the half-inhibitory concentration (IC50) under setting [1] is below 0.1 µM. For the same compound, under setting [2], the IC50 is 0.00067 µM.

In the case of `COC(=O)Cn1c(=O)n([C@H]2CCN(C(=O)O[C@H]3C4CC5CC3C[C@](C(N)=O)(C5)C4)C2)c2ccc(F)cc21` [EXAMPLE 72, (S)-trans-1-carbamoyl-4-adamantyl 3-(5-fluoro-3-(2-methoxy-2-oxoethyl)-2-oxo-2,3-dihydro-1H-benzo[d]imidazol-1-yl)pyrrolidine-1-carboxylate], the inhibition at 0.1 µM worked out at 84.9%. Also, under setting [1], the IC50 was below 0.1 µM. Also, under setting [2], the concentration for half-maximal inhibition (IC50) was 0.00711 µM.
